Assay [1] deals with MDA-MB-468 cells. Put plainly: Growth inhibition assay (Alamar blue). The class given is cell-based. The settings on record: Homo sapiens. The protocol:
We evaluated the antiproliferative effects of inhibitors using the dye Alamar blue. This reagent offers a rapid objective measure of cell viability in cell culture, and it uses the indicator dye resazurin to measure the metabolic capacity of cells, an indicator of cell viability. Briefly, MDA-MB-468 cells were plated on Costar 96-well plates at 1500 cells/well. Cells were allowed to incubate for 24 h at 37° C. before drug treatment. Drugs were added in triplicate at the indicated concentrations, and the plate was incubated for 72 h. Alamar Blue (440 μM) was added, and the plate read 6 h later using Softmax Pro 6 software (Fluorescence intensity mode, excitation 530 nm, emission 580 nm, with 560 nm dichroic mirror). Results were analyzed using GraphPad Prism 5. The percentage cell growth inhibition was calculated by comparing fluorescence readings obtained from treated versus control cells, accounting for initial cell population (time zero).

Assay [2] addresses Hsp90α (Homo sapiens, UniProt P07900). The assay can be described thus: biochemical. Particulars: FP competition, 6 nM Cy3B-GM, 10 nM protein, 4° C. for 24 h.
Assay [3] concerns the target Grp94 (Canis lupus familiaris, UniProt P41148). The settings on record: read-out: Grp94; FP competition, 6 nM Cy3B-GM, 10 nM protein, 4° C. for 24 h.
Assay [4] concerns the target T1, Trap-1 (Homo sapiens, UniProt Q12931).
T1 sequence (Q12931 60-704): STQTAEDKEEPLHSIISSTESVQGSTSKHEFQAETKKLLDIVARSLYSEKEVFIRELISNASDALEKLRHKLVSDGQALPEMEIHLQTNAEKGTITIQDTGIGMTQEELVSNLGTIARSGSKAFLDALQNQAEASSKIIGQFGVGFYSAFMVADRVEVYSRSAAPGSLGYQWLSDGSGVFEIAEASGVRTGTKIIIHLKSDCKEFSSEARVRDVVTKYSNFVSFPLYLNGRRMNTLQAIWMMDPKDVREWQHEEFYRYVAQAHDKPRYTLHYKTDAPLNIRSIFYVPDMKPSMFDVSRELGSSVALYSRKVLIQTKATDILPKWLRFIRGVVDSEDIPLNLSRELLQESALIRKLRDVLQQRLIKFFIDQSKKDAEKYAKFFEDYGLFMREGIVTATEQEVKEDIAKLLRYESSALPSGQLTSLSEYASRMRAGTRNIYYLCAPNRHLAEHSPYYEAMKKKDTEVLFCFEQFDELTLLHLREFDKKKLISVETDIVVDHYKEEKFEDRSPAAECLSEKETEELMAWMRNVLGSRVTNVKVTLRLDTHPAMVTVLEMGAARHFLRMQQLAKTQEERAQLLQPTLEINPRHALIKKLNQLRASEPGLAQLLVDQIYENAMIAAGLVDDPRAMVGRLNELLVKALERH
Particulars: relative to Hsp90.

The target in assay [5] is T1, Trap-1. The assay can be described thus: biochemical.
Assay [6] deals with Hsp90β (Homo sapiens, UniProt P08238).
Chain of Hsp90β (P08238 whole entry): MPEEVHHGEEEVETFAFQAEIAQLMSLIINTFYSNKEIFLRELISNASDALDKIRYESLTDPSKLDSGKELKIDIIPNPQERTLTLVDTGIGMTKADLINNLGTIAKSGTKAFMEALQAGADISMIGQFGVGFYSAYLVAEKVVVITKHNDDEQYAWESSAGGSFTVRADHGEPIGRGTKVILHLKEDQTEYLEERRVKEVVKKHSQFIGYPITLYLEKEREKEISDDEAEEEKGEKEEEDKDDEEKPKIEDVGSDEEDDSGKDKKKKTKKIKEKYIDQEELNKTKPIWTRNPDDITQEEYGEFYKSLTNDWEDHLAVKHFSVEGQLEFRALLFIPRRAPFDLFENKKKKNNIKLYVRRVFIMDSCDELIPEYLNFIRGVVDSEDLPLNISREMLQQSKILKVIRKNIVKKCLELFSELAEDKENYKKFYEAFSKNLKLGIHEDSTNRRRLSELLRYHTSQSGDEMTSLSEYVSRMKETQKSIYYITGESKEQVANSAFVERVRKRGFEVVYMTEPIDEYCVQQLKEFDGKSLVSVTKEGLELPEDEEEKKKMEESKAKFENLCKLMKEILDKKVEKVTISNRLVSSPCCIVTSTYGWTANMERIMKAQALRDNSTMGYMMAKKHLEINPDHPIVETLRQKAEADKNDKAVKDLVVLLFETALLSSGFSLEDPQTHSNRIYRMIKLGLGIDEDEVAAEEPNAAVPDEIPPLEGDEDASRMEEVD

The structures appear in SMILES notation.

25 compounds from patent US12600725B2 (Memorial Sloan-Kettering Cancer Center, priority 2013, dated 2026) can be followed below.

Chain of Grp94 (P41148 with tags, fused parts or gaps DELINS287-327GGGG): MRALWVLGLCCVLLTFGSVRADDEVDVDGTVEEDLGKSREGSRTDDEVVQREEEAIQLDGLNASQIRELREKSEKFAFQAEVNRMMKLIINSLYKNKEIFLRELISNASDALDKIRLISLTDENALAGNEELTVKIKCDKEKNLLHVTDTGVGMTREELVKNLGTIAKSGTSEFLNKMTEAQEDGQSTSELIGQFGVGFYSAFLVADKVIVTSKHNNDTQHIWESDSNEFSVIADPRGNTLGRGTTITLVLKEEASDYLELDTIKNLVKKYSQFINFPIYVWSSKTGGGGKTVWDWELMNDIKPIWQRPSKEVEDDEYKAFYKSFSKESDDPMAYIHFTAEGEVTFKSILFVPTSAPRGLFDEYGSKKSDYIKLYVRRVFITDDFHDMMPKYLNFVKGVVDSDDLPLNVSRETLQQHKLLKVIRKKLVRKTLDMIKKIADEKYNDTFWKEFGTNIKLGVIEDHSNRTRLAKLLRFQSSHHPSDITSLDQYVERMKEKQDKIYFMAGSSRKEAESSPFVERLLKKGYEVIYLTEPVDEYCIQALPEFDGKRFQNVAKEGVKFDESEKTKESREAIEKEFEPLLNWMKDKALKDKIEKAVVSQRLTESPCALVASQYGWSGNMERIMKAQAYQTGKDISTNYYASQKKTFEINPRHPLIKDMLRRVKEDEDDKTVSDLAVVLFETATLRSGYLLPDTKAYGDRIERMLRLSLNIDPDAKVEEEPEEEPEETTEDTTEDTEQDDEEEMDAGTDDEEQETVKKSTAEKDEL

`CC(C)NCCCn1c(Sc2cc(Cl)cc(I)c2)nc2c(N)ncnc21` [HJP-V-149, 8-((3-chloro-5-iodophenyl)thio)-9-(3-(isopropylamino)propyl)-9H-purin-6-amine]: the IC50 in assay [1] came out at 125 nM; in assay [2], 43200 nM; in assay [3] it was 240 nM.

For `CC(C)CNCCCn1c(Sc2cc(Cl)cc(I)c2)nc2c(N)ncnc21` [HJP-VI-4, 8-((3-chloro-5-iodophenyl)thio)-9-(3-(isobutylamino)propyl)-9H-purin-6-amine], the IC50 is 212 nM in assay [1], 41800 nM in assay [2] and 290 nM in assay [3].

Regarding `CC(C)(C)CNCCCn1c(Sc2cc(Cl)cc(I)c2)nc2c(N)ncnc21` [HJP-VI-5, 8-((3-chloro-5-iodophenyl)thio)-9-(3-(neopentylamino)propyl)-9H-purin-6-amine], the IC50 in assay [1] was 562 nM; in assay [2] it was above 25000 nM; in assay [3], 490 nM.

In the case of `CC(C)(C)NCCCn1c(Sc2cc(Cl)cc(I)c2)nc2c(N)ncnc21` [HJP-VI-6, 9-(3-(tert-butylamino)propyl)-8-((3-chloro-5-iodophenyl)thio)-9H-purin-6-amine], the IC50 stood at 314 nM in assay [1], 27800 nM in assay [2] and 540 nM in assay [3].

As for `C=C(C)c1cc(Cl)cc(Sc2nc3c(N)ncnc3n2CCCNC(C)C)c1` [HJP-VI-12, 8-((3-chloro-5-(prop-1-en-2-yl)phenyl)thio)-9-(3-(isopropylamino)propyl)-9H-purin-6-amine], the figures for the IC50 in assay [1], in assay [2] and in assay [3] were 63 nM, 20000 nM and 210 nM, respectively.

In the case of `C#Cc1cc(Cl)cc(Sc2nc3c(N)ncnc3n2CCCNC(C)C)c1` [HJP-VI-18, 8-((3-chloro-5-ethynylphenyl)thio)-9-(3-(isopropylamino)propyl)-9H-purin-6-amine], the IC50 in assay [1] is 122 nM; in assay [2] it was 152000 nM; in assay [3] it was 900 nM.

Consider `CC(C)NCCCn1c(Sc2cc(Cl)cc(-c3ccc[nH]3)c2)nc2c(N)ncnc21` [HJP-VI-28, 8-((3-chloro-5-(1H-pyrrol-2-yl)phenyl)thio)-9-(3-(isopropylamino)propyl)-9H-purin-6-amine], for which the IC50 in assay [1] stood at 286 nM; in assay [3] it was 220 nM.

On to `CC(C)NCCCn1c(Sc2cc(Cl)cc(-c3ccn[nH]3)c2)nc2c(N)ncnc21` [HJP-VI-29, 8-((3-chloro-5-(1H-pyrazol-5-yl)phenyl)thio)-9-(3-(isopropylamino)propyl)-9H-purin-6-amine], for which the IC50 is 516 nM in assay [1], 25900 nM in assay [2] and 1200 nM in assay [3].

Take `C=Cc1cc(Cl)cc(Sc2nc3c(N)ncnc3n2CCCNC(C)C)c1` [HJP-VI-31, 8-((3-chloro-5-vinylphenyl)thio)-9-(3-(isopropylamino)propyl)-9H-purin-6-amine]: the IC50 in assay [1] came out at 129 nM; in assay [2] it was 48900 nM; in assay [3], 630 nM.

On to `CC(C)NCCCn1c(Sc2ccc(Cl)cc2I)nc2c(N)ncnc21` [HJP-VI-36, 8-((4-chloro-2-iodophenyl)thio)-9-(3-(isopropylamino)propyl)-9H-purin-6-amine], for which the IC50 was 5850 nM in assay [1], 3400 nM in assay [2] and 210 nM in assay [3].

Consider `CC(C)NCCCn1c(Sc2cc(Cl)cc(-c3ccoc3)c2)nc2c(N)ncnc21` [HJP-VI-39, 8-((3-chloro-5-(furan-3-yl)phenyl)thio)-9-(3-(isopropylamino)propyl)-9H-purin-6-amine], for which the IC50 is 166 nM in assay [1], 21300 nM in assay [2] and 280 nM in assay [3].

Consider `CC(C)NCCCn1c(Sc2ccc(Cl)cc2-c2ccn[nH]2)nc2c(N)ncnc21` [HJP-VI-43, 8-((4-chloro-2-(1H-pyrazol-5-yl)phenyl)thio)-9-(3-(isopropylamino)propyl)-9H-purin-6-amine], for which the IC50 in assay [1] came out at 6580 nM; in assay [2], 1500 nM; in assay [3], 450 nM.

As to `CC(C)NCCCn1c(Sc2cc(Cl)cc(-c3cc[nH]c3)c2)nc2c(N)ncnc21` [HJP-VI-44, 8-((3-chloro-5-(1H-pyrrol-3-yl)phenyl)thio)-9-(3-(isopropylamino)propyl)-9H-purin-6-amine], the values for the IC50 in assay [1], in assay [2] and in assay [3] were 917 nM, 12300 nM and 830 nM, respectively.

`CC(C)NCCCn1c(Sc2cc(Cl)cc(-c3ncco3)c2)nc2c(N)ncnc21` [HJP-VI-49, 8-((3-chloro-5-(oxazol-2-yl)phenyl)thio)-9-(3-(isopropylamino)propyl)-9H-purin-6-amine]: the values for the IC50 in assay [1], in assay [2] and in assay [3] were 3120 nM, 29600 nM and 1300 nM, respectively.

Consider `C/C=C/c1cc(Cl)cc(Sc2nc3c(N)ncnc3n2CCCNC(C)C)c1` [HJP-VI-63, (E)-8-((3-chloro-5-(prop-1-en-1-yl)phenyl)thio)-9-(3-(isopropylamino)propyl)-9H-purin-6-amine], for which the IC50 was 226 nM in assay [1], above 50000 nM in assay [2] and 340 nM in assay [3].

`C=C(c1cc(Cl)cc(Sc2nc3c(N)ncnc3n2CCCNC(C)C)c1)C(F)(F)F` [HJP-VI-70, 8-((3-chloro-5-(3,3,3-trifluoroprop-1-en-2-yl)phenyl)thio)-9-(3-(isopropylamino)propyl)-9H-purin-6-amine]: the values for the IC50 in assay [1], in assay [2] and in assay [3] were 2160 nM, 13800 nM and 153 nM, respectively.

Regarding `C/C=C\c1cc(Cl)cc(Sc2nc3c(N)ncnc3n2CCCNC(C)C)c1` [HJP-VI-78, (Z)-8-((3-chloro-5-(prop-1-en-1-yl)phenyl)thio)-9-(3-(isopropylamino)propyl)-9H-purin-6-amine], the IC50 turned out to be 580 nM in assay [1], 18600 nM in assay [2] and 214 nM in assay [3].

As for `CC(C)(C)CNCCCn1c(Sc2cc(Cl)cc(Cl)c2)nc2c(N)nc(F)nc21` [HJP-VI-85, 8-((3,5-dichlorophenyl)thio)-2-fluoro-9-(3-(neopentylamino)propyl)-9H-purin-6-amine], the IC50 was 164 nM in assay [1], above 50000 nM in assay [2] and 186 nM in assay [3].

For the compound `CC(C)(C)NCCCn1c(Sc2cc(Cl)cc(Cl)c2)nc2c(N)nc(F)nc21` [HJP-VI-86, 9-(3-(tert-butylamino)propyl)-8-((3,5-dichlorophenyl)thio)-2-fluoro-9H-purin-6-amine], the IC50 in assay [1] was found to be 53 nM; in assay [2] it was 20900 nM; in assay [3], 156 nM.

Consider `CCNC(=O)c1noc(-c2cc(C(C)C)c(O)cc2O)c1-c1ccc(CN2CCOCC2)cc1` [NVP-AUY922], for which, in assay [4], the “decrease in binding efficacy for Trap-1” value is recorded as 2 fold.

`COc1cc(Cc2nc3c(N)ncnc3n2C(C)C)cc(OC)c1OC` [PU-27]: the IC50 in assay [2] was above 500000 nM; in assay [5], above 300000 nM; in assay [3] it was 59300 ± 2690 nM; in assay [6], above 250000 nM.

Regarding `CCC[C@H](C)n1c(Cc2cc(OC)c(OC)c(OC)c2)nc2c(N)ncnc21` [PU-34], the IC50 is above 500000 nM in assay [2], 227000 ± 6600 nM in assay [5], 91300 ± 2160 nM in assay [3] and above 250000 nM in assay [6].

Turning to `C#CCCCn1cnc(N)c2nc(Sc3ccc(OC)cc3OC)nc1-2` [PU-H44], the IC50 was above 100000 nM in assay [2], above 100000 nM in assay [5], 46800 nM in assay [3] and above 100000 nM in assay [6].

Turning to `C[C@H](NCCCn1c(Sc2cc(Cl)cc(Cl)c2)nc2c(N)ncnc21)C1CC1` [SO-III-127B, (S)-9-(3-((1-cyclopropylethyl)amino)propyl)-8-((3,5-dichlorophenyl)thio)-9H-purin-6-amine], the figures for the IC50 in assay [1], in assay [2] and in assay [3] were 830 nM, 40400 nM and 345 nM, respectively.

Turning to `C[C@@H](NCCCn1c(Sc2cc(Cl)cc(Cl)c2)nc2c(N)ncnc21)C1CC1` [SO-III-128B, (R)-9-(3-((1-cyclopropylethyl)amino)propyl)-8-((3,5-dichlorophenyl)thio)-9H-purin-6-amine], the IC50 in assay [1] is 840 nM; in assay [2], 35600 nM; in assay [3] it was 276 nM.
